According to article PMC8398847, “Isavuconazole: Thermodynamic Evaluation of Processes Sublimation, Dissolution and Partition in Pharmaceutically Relevant Media” (Molecules, 2021):
Where two headings read alike, the source gives them in different places.

Assay: Partition experiment, 1-octanol/buffer pH 7.4, shake flask
Assay type: physicochemical
Conditions: for logP at 24 h: 1-octanol/buffer pH 7.4, pH 7.4, 1-octanol/buffer pH 7.4, read-out: logP*O/B (mole fraction scale); for PO/B / logPO/B / sB · 10^6 (equilibrium molar concentration, buffer phase) / sO · 10^3 (equilibrium molar concentration, organic phase) / xB · 10^7 (mole fraction, buffer phase) / xo · 10^4 (mole fraction, 1-octanol phase): 1-octanol/buffer pH 7.4
Procedure: The partition coefficients in the 1-octanol/buffer pH 7.4 system were determined by the shake flask method in the temperature range 293.15–313.15 K. The total volume of the two-phase system 80 cm^3 with the ratio of the organic phase to the volume of the aqueous phase 1:1 was used. Before the experiment, both solvents were mutually saturated by stirring in a large vessel for two days. […] The flasks with the test compound were stirred for 24 h in an air thermostat until complete equilibrium was ensured, as evidenced by the absence of turbidity in each of the phases. The final drug concentrations in both immiscible phases were measured spectrophotometrically.
The partition coefficients in 1-octanol/buffer system (PO/B) were calculated as the ratio of the equilibrium molar concentrations in the organic (sO) and buffer (sB )phases:PO/B =sO/sB(9)
The value P*O/B expressed in mole fraction were determined by follow equation:P*O/B = xO/xB(10)
The standard transfer enthalpy of drug was calculated based on the experimental temperature dependence of partition coefficients using van’t Hoff method:(11) d(lnPO/B*)/dT=ΔtrH^0/RT^2 whereas the standard Gibbs energy of transfer process from the buffer to 1-octanol was evaluated:∆trG° = −RTlnP*O/B(12)
The standard transfer entropy (∆trS°) is obtained by means of relationship:∆trS° =(∆trH° − ∆trG°)/T(13)
The transfer thermodynamic functions represent the change in the enthalpy and entropy terms when one solute mole is transferred from the aqueous phase to the organic phase at infinite dilution.

[1] = transfer from buffer pH 7.4 to 1-octanol

logP at 24 h (293.15 K): 3.44
logP at 24 h (298.15 K): 3.5
logP at 24 h (303.15 K): 3.56
logP at 24 h (308.15 K): 3.62
logP at 24 h (313.15 K): 3.68
PO/B (293.15 K): 313.71
logPO/B (293.15 K): 2.50
sB · 10^6 (equilibrium molar concentration, buffer phase) (293.15 K): 6.85
sO · 10^3 (equilibrium molar concentration, organic phase) (293.15 K): 2.15
xB · 10^7 (mole fraction, buffer phase) (293.15 K): 1.22
xo · 10^4 (mole fraction, 1-octanol phase) (293.15 K): 3.39
PO/B (298.15 K): 359.18
logPO/B (298.15 K): 2.56
sB · 10^6 (equilibrium molar concentration, buffer phase) (298.15 K): 5.98
sO · 10^3 (equilibrium molar concentration, organic phase) (298.15 K): 2.15
xB · 10^7 (mole fraction, buffer phase) (298.15 K): 1.07
xo · 10^4 (mole fraction, 1-octanol phase) (298.15 K): 3.40
PO/B (303.15 K): 413.63
logPO/B (303.15 K): 2.62
sB · 10^6 (equilibrium molar concentration, buffer phase) (303.15 K): 5.20
sO · 10^3 (equilibrium molar concentration, organic phase) (303.15 K): 2.15
xB · 10^7 (mole fraction, buffer phase) (303.15 K): 0.93
xo · 10^4 (mole fraction, 1-octanol phase) (303.15 K): 3.42
PO/B (308.15 K): 474.77
logPO/B (308.15 K): 2.68
sB · 10^6 (equilibrium molar concentration, buffer phase) (308.15 K): 4.53
sO · 10^3 (equilibrium molar concentration, organic phase) (308.15 K): 2.15
xB · 10^7 (mole fraction, buffer phase) (308.15 K): 0.81
xo · 10^4 (mole fraction, 1-octanol phase) (308.15 K): 3.43
PO/B (313.15 K): 535.22
logPO/B (313.15 K): 2.73
sB · 10^6 (equilibrium molar concentration, buffer phase) (313.15 K): 4.02
sO · 10^3 (equilibrium molar concentration, organic phase) (313.15 K): 2.15
xB · 10^7 (mole fraction, buffer phase) (313.15 K): 0.72
xo · 10^4 (mole fraction, 1-octanol phase) (313.15 K): 3.45
TΔtrS° [1]: TΔtrS° = 40.9 ± 1.5/kJ·mol^−1
ΔtrG° [1]: ΔtrG° = −19.99 ± 0.4/kJ·mol^−1
ΔtrH° [1]: ΔtrH° = 20.95 ± 0.2/kJ·mol^−1
ΔtrS° [1]: ΔtrS° = 137.3 ± 5.2/J·mol^−1K^−1
SMILES: C[C@@H](c1nc(-c2ccc(C#N)cc2)cs1)[C@](O)(Cn1cncn1)c1cc(F)ccc1F [IVZ, Isavuconazole]
